Structures can show the parent of a compound that is named as a salt. Where two headings read alike, the source gives them in different places. Square brackets hold non-standard residues; d marks the D form. Peptide text beside a SMILES is read from it.
Tests used:
[1] = test system: rat peritoneal mast cells; experiment: In vitro histamine induction in rat peritoneal mast cells; type: cell-based
Method in brief: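 Mast cells from peritoneal lavage of Sprague Dawley rats were incubated with compound at 10 μM for 15 min at 37 °C in HBSS + 25 mM HEPES pH 7.4. Supernatant histamine measured by EIA; response expressed as fold change versus pre-incubation levels.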

plasma histamine [2] = details: rat
Experimental: For the in vivo evaluation of histamine release, compounds were dosed in isoflurane-anesthetized normal rats at 2 mg/kg by IV bolus (administered over less than one minute). Plasma histamine was measured 5 minutes after compound administration (Cayman histamine EIA #589651).

plasma histamine [3] = experiment: In vivo histamine release after IV bolus in normal Sprague Dawley rats (Example 6, FIG. 3 and 4)
[4] = molecular target: T1, human calcium-sensing receptor (CaSR) (Homo sapiens, UniProt P41180); experiment: In vitro cell assay in HEK-293 expressing the human calcium-sensing receptor (IP1 production); type: cell-based; details: for potency to activate the human CaSR in vitro: HEK-293 cell assay; for EC50: Table 5, IP1 production in HEK293 cells expressing human CaSR, eight concentrations in duplicate, read-out: EC50 in CaSR in vitro assay
T1 construct: expressed in transfected cells; host or cells: HEK 293T cells, transiently transfected (lipofectamine 2000); in some cases HEK293 cells stably transfected
T1 sequence (P41180 20-1078): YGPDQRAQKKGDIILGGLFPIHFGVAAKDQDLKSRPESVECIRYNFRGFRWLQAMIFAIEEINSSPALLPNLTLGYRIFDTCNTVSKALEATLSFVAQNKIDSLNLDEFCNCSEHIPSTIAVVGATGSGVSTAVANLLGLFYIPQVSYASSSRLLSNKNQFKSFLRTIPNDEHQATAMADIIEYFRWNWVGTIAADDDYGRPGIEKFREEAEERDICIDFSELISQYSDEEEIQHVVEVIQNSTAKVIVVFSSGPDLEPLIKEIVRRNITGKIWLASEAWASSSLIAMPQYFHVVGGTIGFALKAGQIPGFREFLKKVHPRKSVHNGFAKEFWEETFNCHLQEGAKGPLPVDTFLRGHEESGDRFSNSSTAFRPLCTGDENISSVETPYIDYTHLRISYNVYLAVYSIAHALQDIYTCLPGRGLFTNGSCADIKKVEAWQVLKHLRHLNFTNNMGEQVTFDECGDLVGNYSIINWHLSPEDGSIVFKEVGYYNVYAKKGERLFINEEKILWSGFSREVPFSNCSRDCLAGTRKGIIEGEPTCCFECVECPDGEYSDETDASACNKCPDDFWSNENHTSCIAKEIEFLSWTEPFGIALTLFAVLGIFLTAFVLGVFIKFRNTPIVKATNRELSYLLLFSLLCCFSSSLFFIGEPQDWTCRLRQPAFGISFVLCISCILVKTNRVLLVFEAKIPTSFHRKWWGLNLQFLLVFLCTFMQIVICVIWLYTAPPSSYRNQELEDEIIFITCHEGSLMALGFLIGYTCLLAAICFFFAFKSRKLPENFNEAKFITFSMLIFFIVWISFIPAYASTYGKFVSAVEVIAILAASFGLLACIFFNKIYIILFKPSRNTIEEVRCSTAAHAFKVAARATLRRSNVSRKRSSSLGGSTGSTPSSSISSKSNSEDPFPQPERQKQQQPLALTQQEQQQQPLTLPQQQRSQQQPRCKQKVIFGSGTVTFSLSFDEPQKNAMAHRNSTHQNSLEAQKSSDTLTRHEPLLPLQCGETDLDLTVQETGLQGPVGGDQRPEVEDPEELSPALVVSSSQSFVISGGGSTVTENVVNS
Method in brief: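 HEK293 cells transfected with human CaSR exposed to peptides at eight concentrations in duplicate (top 1 mM or 300 μM, ½-log dilutions) at 37 °C for 1.5 h.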

plasma PTH [5] = experiment: In vivo PTH lowering after IV bolus in isoflurane-anesthetized normal Sprague Dawley rats; parameters: species or system rat; details: Table 2; for % PTH reduction of baseline at 1 hour post IV administration of 0.5 mg/kg compound: isoflurane-anesthetized normal rats, 0.5 mg/kg IV; for 0.5 mg/kg IV bolus % PTH AUC of saline control: normal rats, AUC 1-4 h
Method in brief: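 Peptides were given as a 0.5 mg/kg IV bolus to normal Sprague Dawley rats kept under isoflurane throughout, with saline bolus controls.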

plasma histamine [6] = details: rat, in vivo, iv
plasma PTH [7] = experiment: 1K1C rat model of acute renal insufficiency, plasma PTH after dosing; type: in vivo; details: 1K1C rats, oral 30 mg/kg

Row | Histamine in vitro Fold change of non-treated at 10 uM [1] [fold] | Histamine response in vivo Fold change from pre-dose levels 5′ post injection 2 mg/kg IV bolus (plasma histamine [2]) [fold] | Compound | potency to activate the human CaSR in vitro [4] | EC50 [4] [µM] | % PTH reduction of baseline at 1 hour post IV administration of 0.5 mg/kg compound (plasma PTH [5]) [%] | 0.5 mg/kg IV bolus % PTH AUC of saline control (plasma PTH [5]) [%] | other results
1 | 2.5 | 1.0 | CC(=O)N[C@H](CS)C(=O)N[C@H](C)C(=O)N[C@H](CCCNC(=N)N)C(=O)N[C@H](C)C(=O)N[C@H](CCCNC(=N)N)C(=O)N[C@H](CCCNC(=N)N)C(=O)N[C@H](CCCNC(=N)N)C(N)=O [SEQ ID NO: 15, Ac-cararrr-NH2] (Ac-[dC][dA][dR][dA][dR][dR][dR]-NH2) | significantly reduced potency in vitro in activating the CaSR | 13 | 75 | 116 | histamine response after IV bolus (plasma histamine [6]): lack of a histamine response
2 | – | – | CC(=O)N[C@H](CS)C(=O)N[C@H](CCCNC(=N)N)C(=O)N[C@H](CCCNC(=N)N)C(=O)N[C@H](CCCNC(=N)N)C(=O)N[C@H](CCCNC(=N)N)C(=O)N[C@H](CCCNC(=N)N)C(=O)N[C@H](CCCNC(=N)N)C(=O)N[C@H](CCCNC(=N)N)C(=O)N[C@H](CCCNC(=N)N)C(N)=O [SEQ ID NO: 41, Ac-crrrrrrrr-NH2] | more potent at activating the CaSR | 0.3 | – | – | histamine fold over baseline (plasma histamine [3]; equimolar IV bolus 2.1 μmol/kg, normal rats, 5 minutes after dosing, FIG. 3): 6-9 fold; histamine response after IV bolus (plasma histamine [3]; rats, IV bolus): largest induction of histamine
3 | – | – | C[C@@H](NCCCc1cccc(C(F)(F)F)c1)c1cccc2ccccc12 [cinacalcet, Cinacalcet hydrochloride] | – | – | – | – | duration of PTH lowering (plasma PTH [7]): up to 6 hours; lowering of PTH (plasma PTH [7]): approximately 50%
4 | 0.7 | 0.9 | Ac-c(C)rrarar-NH2 [SEQ ID NO: 28] | – | – | 0 | 16 | –

Row | Compound | Histamine in vitro Fold change of non-treated at 10 uM [1] [fold] | Histamine response in vivo Fold change from pre-dose levels 5′ post injection 2 mg/kg IV bolus (plasma histamine [2]) [fold] | potency to activate the human CaSR in vitro [4] | EC50 [4] [µM] | % PTH reduction of baseline at 1 hour post IV administration of 0.5 mg/kg compound (plasma PTH [5]) [%] | 0.5 mg/kg IV bolus % PTH AUC of saline control (plasma PTH [5]) [%] | other results
5 | CC(=O)N[C@H](CSSC[C@H](N)C(=O)O)C(=O)N[C@H](C)C(=O)N[C@H](CCCNC(=N)N)C(=O)N[C@H](CCCNC(=N)N)C(=O)N[C@H](CCCNC(=N)N)C(=O)N[C@H](C)C(=O)N[C@H](CCCNC(=N)N)C(N)=O [SEQ ID NO: 3, Ac-c(C)arrrar-NH2] | 0.6 | 0.9 | – | – | – | – | fold increase in histamine level relative to pre-dose (plasma histamine [3]; 3 mg/kg IV bolus, isoflurane-anesthetized Sprague Dawley rats, FIG. 4): no apparent histamine response

Reference: US10280198B2, “Therapeutic agents for reducing parathyroid hormone levels” (KAI PHARMACEUTICALS, INC., priority 2009, dated 2019)
